In patent US12037339B2, “Substituted imidazoles as GLP-1 receptor agonists” (Eccogene Inc., priority 2020, dated 2024):

molecular target: (Homo sapiens, UniProt P43220); experiment: h-GLP-1 activity assay (cAMP HTRF, HEK293 cells with stable expression of human GLP-1); format: cell-based; settings: relative EC50, 10 nM human GLP-1 set as 100% response, 30 min at 37° C.
Procedure: Human GLP-1 agonizing activity was detected in HEK293 cells with stable expression of human GLP-1 by Cisbio cAMP Gs dynamic kit (Catalog #62AM4PEC) according to manufacturer's protocol. Briefly, cells were collected and resuspended in assay buffer containing 0.1% BSA and 0.5 mM of IBMX at concentration to 2.5×10^5 cells/mL. Two μL 5× compound solution and 8 μL cell suspension were added to each well of low-volume 384 white assay plate. After 30 min incubation at 37° C., 5 μL cAMP-d2 working solution and 5 μL anti-cAMP antibody-cryptate were added to each well, and incubate at room temperature for 1 hr. Series dilution of cAMP was used as standard. Human GLP-1 (7-37) was used as positive control and 10 nM human GLP-1 was set as 100% response. HTRF signals were read at 665 and 615 nm with EnVision plate reader and calculated cAMP concentration by interpolation to the standard curve. The EC50 value of the tested compounds was calculated by fitting the dose response curve using a 4-parameter non-linear regression routine and relative EC50 was presented in Table 29.

Chain of (Homo sapiens, UniProt P43220) (P43220 24-463): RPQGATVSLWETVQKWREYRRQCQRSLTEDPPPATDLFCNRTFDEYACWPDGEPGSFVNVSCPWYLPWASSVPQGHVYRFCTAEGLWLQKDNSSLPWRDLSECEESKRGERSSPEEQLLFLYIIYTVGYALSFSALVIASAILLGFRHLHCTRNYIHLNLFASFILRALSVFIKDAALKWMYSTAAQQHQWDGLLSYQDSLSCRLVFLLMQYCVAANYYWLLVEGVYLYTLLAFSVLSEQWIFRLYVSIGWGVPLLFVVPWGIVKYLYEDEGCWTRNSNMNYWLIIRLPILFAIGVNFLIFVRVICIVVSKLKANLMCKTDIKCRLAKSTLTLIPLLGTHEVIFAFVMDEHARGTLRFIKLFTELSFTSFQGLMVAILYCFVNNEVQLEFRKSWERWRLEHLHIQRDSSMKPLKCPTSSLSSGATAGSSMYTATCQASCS

| Compound | EC50 [nM] |
| --- | --- |
| C[C@H]1c2c(-n3ccn(-c4ccc5c(cnn5C)c4F)c3=O)c(-c3ccc(F)c(C(F)(F)F)c3)nn2CCN1C(=O)c1cc2cc([C@@H]3CCOC(C)(C)C3)ccc2n1C1(c2noc(=O)[nH]2)CC1 (single isomer, unassigned) [Compound 65] | < 20 |
| C[C@@H]1c2c(-n3ccn(-c4ccc5c(cnn5C)c4F)c3=O)c(-c3ccc(F)c(C(F)(F)F)c3)nn2CCN1C(=O)c1cc2cc([C@@H]3CCOC(C)(C)C3)ccc2n1C1(c2noc(=O)[nH]2)CC1 (single isomer, unassigned) [Compound 66] | > 100 |
| C[C@H]1c2c(nn(-c3ccc(F)c(Cl)c3)c2-n2ccn(-c3ccc4c(cnn4C)c3F)c2=O)CCN1C(=O)c1cc2cc([C@@H]3CCOC(C)(C)C3)ccn2c1C1(c2noc(=O)[nH]2)CC1 (single isomer, unassigned) [Compound 67] | < 20 |
| Cc1cc(-c2nn3c(c2-n2ccn(-c4ccc5c(cnn5C)c4F)c2=O)[C@@H](C)N(C(=O)c2cc4cc([C@@H]5CCOC(C)(C)C5)ccn4c2C2(c4noc(=O)[nH]4)CC2)CC3)cc(C)c1F (single isomer, unassigned) [Compound 68] | < 20 |
| Cc1cc(-c2nn3c(c2-n2ccn(-c4ccc5c(cnn5C)c4F)c2=O)[C@@H](C)N(C(=O)c2cn4cc([C@@H]5CCOC(C)(C)C5)ccc4c2C2(c4noc(=O)[nH]4)CC2)CC3)cc(C)c1F (single isomer, unassigned) [Compound 69] | < 20 |
| C[C@H]1c2c(nn(-c3ccc(F)c(F)c3)c2-n2ccn(-c3ccc4c(cnn4C)c3F)c2=O)CCN1C(=O)c1cn2cc([C@@H]3CCOC(C)(C)C3)ccc2c1C1(c2noc(=O)[nH]2)CC1 (single isomer, unassigned) [Compound 70] | < 20 |
| C[C@H]1c2c(nn(-c3ccc(F)c(C(F)(F)F)c3)c2-n2ccn(-c3ccc4c(cnn4C)c3F)c2=O)CCN1C(=O)c1cn2cc([C@@H]3CCOC(C)(C)C3)ccc2c1C1(c2noc(=O)[nH]2)CC1 (single isomer, unassigned) [Compound 71] | < 20 |
| C[C@H]1c2c(nn(-c3cc(F)c(F)c(F)c3)c2-n2ccn(-c3ccc4c(cnn4C)c3F)c2=O)CCN1C(=O)c1cc2cc([C@@H]3CCOC(C)(C)C3)ccn2c1C1(c2noc(=O)[nH]2)CC1 (single isomer, unassigned) [Compound 72] | < 20 |
| C[C@H]1c2c(nn(-c3ccc(F)c(C(F)(F)F)c3)c2-n2ccn(-c3ccc4c(cnn4C)c3F)c2=O)CCN1C(=O)c1cc2cc([C@@H]3CCOC(C)(C)C3)ccn2c1C1(c2noc(=O)[nH]2)CC1 (single isomer, unassigned) [Compound 74] | < 20 |
| C[C@H]1c2c(nn(-c3cc(F)c(F)c(F)c3)c2-n2ccn(-c3ccc4c(cnn4C)c3F)c2=O)CCN1C(=O)c1cn2cc([C@@H]3CCOC(C)(C)C3)ccc2c1C1(c2noc(=O)[nH]2)CC1 (single isomer, unassigned) [Compound 75] | < 20 |
| Cc1cc(-n2nc3c(c2-n2ccn(-c4ccc5c(cnn5C)c4F)c2=O)[C@H](C)N(C(=O)c2cc4cc([C@@H]5CCOC(C)(C)C5)ccn4c2C2(c4noc(=O)[nH]4)CC2)CC3)ccc1F (single isomer, unassigned) [Compound 77] | < 20 |

Second part, the compound after the results:

| EC50 [nM] | Compound |
| --- | --- |
| < 20 | C[C@H]1c2c(nn(-c3ccc(F)c(F)c3)c2-n2ccn(-c3ccc4c(cnn4C)c3F)c2=O)CCN1C(=O)c1cc2cc([C@@H]3CCOC(C)(C)C3)ccn2c1C1(c2noc(=O)[nH]2)CC1 (single isomer, unassigned) [Compound 78] |
| < 20 | Cc1cc(-n2nc3c(c2-n2ccn(-c4ccn5c(C)nnc5c4)c2=O)[C@H](C)N(C(=O)c2cn4cc([C@@H]5CCOC(C)(C)C5)ccc4c2C2(c4noc(=O)[nH]4)CC2)CC3)cc(C)c1F (single isomer, unassigned) [Compound 79] |
| < 20 | C[C@H]1c2c(nn(-c3ccc(F)c(OC(F)(F)F)c3)c2-n2ccn(-c3ccc4c(cnn4C)c3F)c2=O)CCN1C(=O)c1cn2cc([C@@H]3CCOC(C)(C)C3)ccc2c1C1(c2noc(=O)[nH]2)CC1 (single isomer, unassigned) [Compound 80] |
| < 20 | C[C@H]1c2c(nn(-c3ccc(F)c(OC(F)(F)F)c3)c2-n2ccn(-c3ccc4c(cnn4C)c3F)c2=O)CCN1C(=O)c1cc2cc([C@@H]3CCOC(C)(C)C3)ccn2c1C1(c2noc(=O)[nH]2)CC1 (single isomer, unassigned) [Compound 81] |
| 20 to 100 | Cc1cc(-n2nc3c(c2-n2ccn(-c4ccc5c(cnn5C)c4F)c2=O)[C@H](C)N(C(=O)c2nn4cc([C@H]5CCOC(C)(C)C5)ccc4c2C2(c4noc(=O)[nH]4)CC2)CC3)cc(C)c1F (single isomer, unassigned) [Compound 82] |
| < 20 | Cc1cc(-n2nc3c(c2-n2ccn(-c4ccc5c(cnn5C)c4F)c2=O)[C@H](C)N(C(=O)c2nn4cc([C@@H]5CCOC(C)(C)C5)ccc4c2C2(c4noc(=O)[nH]4)CC2)CC3)cc(C)c1F (single isomer, unassigned) [Compound 83] |
| < 20 | C[C@H]1c2c(nn(-c3ccc(F)c(C4CC4)c3)c2-n2ccn(-c3ccc4c(cnn4C)c3F)c2=O)CCN1C(=O)c1nn2cc([C@@H]3CCOC(C)(C)C3)ccc2c1C1(c2noc(=O)[nH]2)CC1 (single isomer, unassigned) [Compound 84] |
| 20 to 100 | C[C@H]1c2c(nn(-c3ccc(F)c(C4CC4)c3)c2-n2ccn(-c3ccc4c(cnn4C)c3F)c2=O)CCN1C(=O)c1c(C2(c3noc(=O)[nH]3)CC2)c2ccc([C@@H]3CCOC(C)(C)C3)cn2c1Cl (single isomer, unassigned) [Compound 85] |
| < 20 | Cc1cc(-n2nc3c(c2-n2ccn(-c4ccc5c(cnn5C)c4F)c2=O)[C@H](C)N(C(=O)c2cn4cc([C@H]5CCOC6(CC6)C5)ccc4c2C2(c4noc(=O)[nH]4)CC2)CC3)cc(C)c1F (single isomer, unassigned) [Compound 86] |
| < 20 | Cc1cc(-n2nc3c(c2-n2ccn(-c4ccc5c(cnn5C)c4F)c2=O)[C@H](C)N(C(=O)c2cn4cc([C@@H]5CCOC6(CC6)C5)ccc4c2C2(c4noc(=O)[nH]4)CC2)CC3)cc(C)c1F (single isomer, unassigned) [Compound 87] |
| > 100 | C[C@H]1c2c(nn(-c3ccc(F)c(C4CC4)c3)c2-n2ccn(-c3ccc4c(cnn4C)c3F)c2=O)CCN1C(=O)c1c(Cl)c2cc([C@@H]3CCOC(C)(C)C3)ccn2c1C1(c2noc(=O)[nH]2)CC1 (single isomer, unassigned) [Compound 88] |
| 20 to 100 | C[C@H]1c2c(nn(-c3ccc(F)c(C4CC4)c3)c2-n2ccn(-c3ccc4c(cnn4C)c3F)c2=O)CCN1C(=O)c1cn2nc([C@H]3CCOC(C)(C)C3)ccc2c1C1(c2noc(=O)[nH]2)CC1 (single isomer, unassigned) [Compound 89] |
| < 20 | C[C@H]1c2c(nn(-c3ccc(F)c(C4CC4)c3)c2-n2ccn(-c3ccc4c(cnn4C)c3F)c2=O)CCN1C(=O)c1cn2cc([C@@H]3CCOC(C)(C)C3)cc(F)c2c1C1(c2noc(=O)[nH]2)CC1 (single isomer, unassigned) [Compound 92] |
| < 20 | C[C@H]1c2c(nn(-c3ccc(F)c(C4CC4)c3)c2-n2ccn(-c3ccc4c(cnn4C)c3F)c2=O)CCN1C(=O)c1cc2cc([C@H]3CCOC(C)(C)C3)c(F)cn2c1C1(c2noc(=O)[nH]2)CC1 (single isomer, unassigned) [Compound 93] |
| 20 to 100 | C[C@H]1c2c(nn(-c3ccc(F)c(C4CC4)c3)c2-n2ccn(-c3ccc4c(cnn4C)c3F)c2=O)CCN1C(=O)c1cc2cc([C@@H]3CCOC(C)(C)C3)c(F)cn2c1C1(c2noc(=O)[nH]2)CC1 (single isomer, unassigned) [Compound 94] |
